Where two headings read alike, the source gives them in different places.
Assays:
[1] = tested on: maximal electroshock-induced seizures; assay: Maximal electroshock-induced seizure (MES) test in mice; type: in vivo, mouse; settings: for p/t, number of animals protected against MES-induced seizures / number tested / responders at 300 mg/kg: 300 mg/kg i.p.; for responders at 300 mg/kg / ED50: Mus musculus, ip; for responders at 300 mg/kg: read-out: percent of animals protected against MES-induced seizures; for PI (TD50/ED50): protective index
Protocol: Additionally, all efforts were made to minimize animal suffering and to use only the number of animals necessary to produce reliable scientific data.
In the initial stage of the study, groups of eight mice were supplied with the compounds (administered intraperitoneally) in a dose of 300 mg/kg and then exposed to electrical impulse at fixed intervals (15, 30, 60, 120 min).
Each mouse was used only once.
Fresh drug solutions were prepared on each day of experimentation and administered at 15, 30, 60 and 120 min. before the initiation of maximal electroconvulsions. Electroconvulsions were produced by a current (0.2 s stimulus duration; 500 V, 50 Hz, fixed current intensity of 25 mA) delivered via ear-clip electrodes by a Rodent Shocker generator (constant-current stimulator Type 221, Hugo Sachs Elektronik, Freiburg, Germany). The criterion for the occurrence of seizure activity was the tonic hind limb extension. The animals were administered with a constant dose of 300 mg/kg of each of the examined compounds and were subjected to MES-induced seizures. […] The animals were administered with different doses of the tested compounds so as to obtain a variable percentage of protection against maximal electroconvulsions, allowing the construction of dose-response relationship lines for each examined compound administered i.p. at various pretreatment times, according to Litchfield and Wilcoxon. Each ED50 value represents the dose of the studied compounds that is required to protect 50% of the animals tested against MES-induced seizures.

[2] = pretreatment time 120 min, mice
[3] = 0.25 h, pretreatment time 15 min, mice
[4] = 0.5 h, pretreatment time 30 min, mice
[5] = 1 h, pretreatment time 60 min, mice
[6] = 2 h, pretreatment time 120 min, mice

Row | SMILES | p/t, number of animals protected against MES-induced seizures / number tested ([1]; pretreatment time 15 min, mice) | p/t, number of animals protected against MES-induced seizures / number tested ([1]; pretreatment time 30 min, mice) | p/t, number of animals protected against MES-induced seizures / number tested ([1]; pretreatment time 60 min, mice) | p/t, number of animals protected against MES-induced seizures / number tested [1, 2] | responders at 300 mg/kg [1, 3] [%] | responders at 300 mg/kg [1, 4] [%] | responders at 300 mg/kg [1, 5] [%] | responders at 300 mg/kg [1, 6] [%] | melting point [°C] | ED50 ([1]; pretreatment time 15 min, mice, read-out: ED50 ± S.E. (MES test)) [mg/kg] | ED50 ([1]; pretreatment time 30 min, mice, read-out: ED50 ± S.E. (MES test)) [mg/kg] | ED50 ([1]; pretreatment time 60 min, mice, read-out: ED50 ± S.E. (MES test)) [mg/kg] | ED50 ([1]; pretreatment time 120 min, mice, read-out: ED50 ± S.E. (MES test)) [mg/kg] | ED50 ([1]; pretreatment times 15, 30, 60, 120 min, read-out: ED50 (MES), range over pretreatment times) [mg/kg] | time to peak of the anticonvulsant action ([1]; after i.p. administration, MES, mice) [min] | PI (TD50/ED50) ([1]; chimney TD50 / MES ED50, pretreatment time 15 min) | PI (TD50/ED50) ([1]; chimney TD50 / MES ED50, pretreatment time 30 min) | PI (TD50/ED50) ([1]; chimney TD50 / MES ED50, pretreatment time 60 min) | PI (TD50/ED50) ([1]; chimney TD50 / MES ED50, pretreatment time 120 min) | onset of action ([1]; significant protection as early as 15 min after parenteral administration, MES, mice)
1 | CC(=O)c1ccc(-n2c(-c3cccc(Cl)c3)n[nH]c2=S)cc1 [Compound 11a, 4-(4-Acetylphenyl)-5-(3-chlorophenyl)-2,4-dihydro-3H-1,2,4-triazole-3-thione] | 1/8 | 1/8 | 1/8 | 0/8 | 12.5 | 12.5 | 12.5 | 0 | 218 to 220 |  |  |  |  |  |  |  |  |  |  | 
2 | Fc1ccc(-n2c(-c3ccc(Cl)cc3)n[nH]c2=S)c(F)c1 [Compound 13a, 5-(4-Chlorophenyl)-4-(2,4-difluorophenyl)-2,4-dihydro-3H-1,2,4-triazole-3-thione] | 8/8 | 8/8 | 8/8 | 8/8 | 100 | 100 | 100 | 100 | 196 to 198 | 104 ± 15.8 | 100 ± 30.1 | 109 ± 11.9 | 80 ± 10.9 | 80 to 109 | 120 | 1.9 | 1.9 | 1.6 | 2.7 | quick onset of action
3 | S=c1n(CN2CCOCC2)nc(-c2cccc(Cl)c2)n1-c1ccc(Br)cc1 [Compound 19a, 4-(4-Bromophenyl)-5-(3-chlorophenyl)-2-(morpholin-4-ylmethyl)-2,4-dihydro-3H-1,2,4-triazole-3-thione] | 0/8 | 0/8 | 0/8 | 0/8 | 0 | 0 | 0 | 0 |  |  |  |  |  |  |  |  |  |  |  | 
4 | S=c1n(CN2CCN(c3ccccc3)CC2)nc(-c2cccc(Cl)c2)n1-c1ccc(Br)cc1 [Compound 20a, 4-(4-Bromophenyl)-5-(3-chlorophenyl)-2-[(4-phenylpiperazin-1-yl)methyl]-2,4-dihydro-3H-1,2,4-triazole-3-thione] | 0/8 | 0/8 | 0/8 | 0/8 | 0 | 0 | 0 | 0 |  |  |  |  |  |  |  |  |  |  |  | 
5 | Fc1ccc(N2CCN(Cn3nc(-c4cccc(Cl)c4)n(-c4ccc(Br)cc4)c3=S)CC2)cc1 [Compound 21a, 4-(4-Bromophenyl)-5-(3-chlorophenyl)-2-{[4-(4-fluorophenyl)piperazin-1-yl]methyl}-2,4-dihydro-3H-1,2,4-triazole-3-thione] | 0/8 | 0/8 | 0/8 | 0/8 | 0 | 0 | 0 | 0 |  |  |  |  |  |  |  |  |  |  |  | 
6 | S=c1n(CN2CCOCC2)nc(-c2ccc(Cl)cc2)n1-c1ccc(Br)cc1 [Compound 28a, 4-(4-Bromophenyl)-5-(4-chlorophenyl)-2-(morpholin-4-ylmethyl)-2,4-dihydro-3H-1,2,4-triazole-3-thione] | 0/8 | 0/8 | 0/8 | 0/8 | 0 | 0 | 0 | 0 |  |  |  |  |  |  |  |  |  |  |  | 
